Common to all, as to type: cell-based, Chinese hamster
One test has as its system SREBP-2. The test is described as follows: Western-blot analysis of SREBP-2 in CHO-K1 cells. The note with it: 5 μM; for levels of the mature form of SREBP versus DMSO: 16 h, CHO-K1 cells (FIG. 7, FIG. 8). As for the experimental part: CHO-K1 cells were treated with DMSO alone or each molecule (5 μM) for 18 h. The levels of precursor and mature forms of SREBP-2 were analyzed by Western-blot. Western-blots of actin are shown in lower panel as a loading control.
CHO-K1 cells were treated with DMSO alone or each molecule (5 μM) for 16 h. The levels of precursor and mature forms of SREBP-2 were analyzed by Western-blot. Western-blots of actin are shown in lower panel as a loading control.
On day 0, CHO-K1 cells were added to 6-well plates at 3.0×10^5 cells per well in medium A. On day 1, the cells were washed with PBS, and then incubated in medium B in the absence or presence of specific test compounds (5 μM). After 16 h of incubation, the cells were washed three times with cold PBS, and lysed with a buffer A (50 mM Tris-HCl (pH 7.5), 150 mM NaCl, 1% (v/v) Nonidet P40, 0.5% (w/v) sodium deoxycholate, 8 M urea, and protease inhibitor cocktail (Nacalai)). The cell lysate were passed 16 times through a 25 G needle and centrifuged at 7,000 g at 4° C. for 10 min. The supernatants were transferred to new tubes, and the pellets were extracted with a buffer A. The resulting buffer was centrifuged at 7,000 g at 4° C. for 10 min, and the supernatants were combined to the previous ones. The resulting lysate was mixed with 0.20 volume of 6×SDS sample buffer (Nacalai) and incubated at room temperature for 30 min. The samples were separated on a 10% SDS-PAGE gel and blotted, using mouse monoclonal antibodies against SREBP-2 (IgG-7D4), SCAP (IgG-9D5), c-Myc (IgG1-MC045), and actin (AC-40). The specific bands were visualized using enhanced chemiluminescence (ECL Prime Western Blotting Detection Reagent, GE Healthcare) on an ImageQuant LAS 500 (GE Healthcare).

Another test deals with SREBP. The test is described as follows: SRE-driven luciferase reporter assay of SREBP activation. The note with it: luciferase reporter in CHO-K1 cells, lipid-depleted medium, 20-24 h, normalized to β-galactosidase, averages of three independent experiments, read-out: IC50 (μM), inhibitory effect on the activation of SREBP. As for the experimental part:
The transfected cells were treated with DMSO alone, sterols (10 μg/mL cholesterol and 1.0 μg/mL 25-HC), or varied concentrations of 25(OH)D in a medium containing lipid-free serum. Luciferase activity was measured after 20 h incubation, and the data were normalized to β-galactosidase activity. Values are the mean±SD of three independent experiments.
The molecules in a chemical library which consists of 280 endogenous lipid related molecules were screened for their ability to inhibit the expression of a luciferase reporter gene. In this gene, three repeats of sterol regulatory elements (SREs) control expression of luciferase. Lipid depletion activates SREBPs, which bind to the SRE domain and work as transcription factors to express luciferase. The SREBP-responsive reporter construct was co-transfected into Chinese hamster ovary K1 (CHO-K1) cells, along with a control β-galactosidase (β-gal) reporter gene. A constitutively active actin promoter in the reporter gene drives the expression of β-gal. The levels of luciferase expression from the SREBP-responsive reporter gene were normalized to the levels of β-gal expression.
CHO-K1 cells were maintained in a medium A (1:1 mixture of Ham's F-12 medium and Dulbecco's modified Eagle medium, supplemented with 100 units/mL penicillin, 100 μg/mL streptomycin sulfate, and 5% (v/v) fetal bovine serum) at 37° C. under humidified 5% CO2.
On day 0, CHO-K1 cells were added to 96-well plates at 1.0×10^4 cells per well in medium A. On day 1, the cells were co-transfected with an SRE-1-driven luciferase reporter construct (pSRE-Luc) and pAc-β-gal at a 20/1 ratio, using FuGENE(Registered trademark) HD transfection reagent (Promega), according to the manufacturer's protocol. After 8-12 h of incubation, the cells were washed with PBS buffer, then incubated in medium B containing the specific test compounds. […] After 20-24 h of incubation, the cells in each well were lysed by freeze-thaw with Reporter Lysis Buffer (Promega), and aliquots were used to measure luciferase and β-galactosidase activities. Luciferase activity was measured using the Steady-Glo(Registered trademark) Luciferase Assay System (Promega), and β-galactosidase activity was measured using the β-galactosidase Enzyme Assay System (Promega). Luciferase activity was normalized to β-galactosidase activity.

The test system of test [1] is SREBP-2 fragment fused to PLAP (PLAP-BP2513-1141). The test is described as follows: PLAP-BP assay (secreted alkaline phosphatase reporter of SREBP translocation and processing). The note with it: VD derivatives 10 μM, 20 h, CHO-K1 co-transfected with PLAP-BP2 and SCAP; average of two experiments.

Entries after “also recorded” stand apart in the source; their conditions may differ. Where two headings read alike, the source gives them in different places.

With 1α-NH(p-CF3Bz) VD3 [Compound 38], the “levels of the mature form of SREBP versus DMSO” value (shortened to “levels … of SREBP versus DMSO”) in the test on SREBP-2 is recorded as “lower than that of DMSO”. The IC50 at SREBP is 1.76 µM.

On to 1α-NHNs VD3 [Compound 28], for which, in the test with SREBP-2, the “levels … of SREBP versus DMSO” value was “lower than that of DMSO”. In addition, at SREBP, the IC50 is 0.68 µM.

On to 1α-OH-3α-NHPhth VD3 [Compound 77], for which the IC50 at SREBP was 1.55 µM.

In the case of 1α-OH-3α-NHTs VD3 [Compound 73], the IC50 at SREBP was found to be 2.71 µM.

As to “19-Nor 1β-NH(p-SCF3Bz)-3β-OH VD3 [Compound 74]”, on SREBP, the IC50 is 1.11 µM.

Turning to 19-Nor 1β-NHTs-3β-OH VD3 [Compound 72], the IC50 at SREBP came out at 1.69 µM.

19-Nor 1β-NPhth-3β-OH VD3 [Compound 76]: the concentration for half-maximal inhibition (IC50) at SREBP is 2.05 µM.

With `C=C1/C(=C\C=C2/CCC[C@]3(C)[C@@H]([C@H](C)CCCC(C)(C)O)CC[C@@H]23)C[C@@H](O)C[C@@H]1O` [1,25(OH)2D, 1α,25-dihydroxyvitamin D3], the “secretion of PLAP” value in test [1] was “inhibited the secretion of PLAP to a greater extent than sterol; also recorded: caused a greater decrease in PLAP secretion than did cholesterol”.

For the compound `C=C1C(=CC=C2CCCC3(C)C2CCC3C(C)CCCC(C)C)CC(O)CC1NC(=O)OC(C)(C)C` (stereo not drawn) [Compound 18a, 1α-NHBoc VD3], the IC50 at SREBP came to 0.82 µM.

As to `C=C1C(=CC=C2CCCC3(C)C2CCC3C(C)CCCC(C)C)CC(O)CC1NC(C)=O` (stereo not drawn) [Compound 22a, 1α-NHAc VD3], the “levels … of SREBP versus DMSO” value with SREBP-2 was “lower than that of DMSO”. Also, the IC50 at SREBP amounted to 3.24 µM.

Consider `C=C1C(=CC=C2CCCC3(C)C2CCC3C(C)CCCC(C)C)CC(O)CC1NC(C)=O` (stereo not drawn) [Compound 22b, 1β-NHAc VD3], for which the “levels … of SREBP versus DMSO” value with SREBP-2 is listed as “lower than that of DMSO”. Also, the IC50 at SREBP was 3.56 µM.

On to `C[C@H](CCCC(C)(C)O)[C@H]1CC[C@H]2[C@@H]3CC=C4C[C@@H](O)CC[C@]4(C)[C@H]3CC[C@]12C` [Compound 25-HC, 25-hydroxycholesterol, reference compound], for which, in the test on SREBP-2 (18 h, CHO-K1 cells (FIG. 3)), the “level of mature form of SREBP” value was “disappeared” and the “level of precursor form of SREBP” value is reported as “accumulated”.

With `C=C1C(=CC=C2CCCC3(C)C2CCC3C(C)CCCC(C)C)CC(O)CC1NS(=O)(=O)c1ccc(C)cc1` (stereo not drawn) [Compound 32, 1α-NHTs VD3], in the test with SREBP-2, the “levels … of SREBP versus DMSO” value is “lower than that of DMSO”. Also, the IC50 on SREBP was 0.61 µM.

As for `C=C1C(=CC=C2CCCC3(C)C2CCC3C(C)CCCC(C)C)CC(O)CC1NC(=O)OCc1ccccc1` (stereo not drawn) [Compound 36, 1α-NHCbz VD3], the “levels … of SREBP versus DMSO” value in the test with SREBP-2 was “lower than that of DMSO”. Also, at SREBP, the IC50 stood at 1.38 µM.

As for `C=C1/C(=C\C=C2/CCC[C@]3(C)[C@@H]([C@H](C)CCCC(C)(C)O)CC[C@@H]23)C[C@@H](O)C[C@@H]1NC(=O)c1ccc(Br)cc1` [Compound 39, 1α-NH(p-BrBz) VD3], the “levels … of SREBP versus DMSO” value in the test with SREBP-2 was “lower than that of DMSO”. Moreover, in the test with SREBP (Cricetulus griseus), the IC50 amounted to 0.97 µM.

With `C=C1/C(=C\C=C2/CCC[C@]3(C)[C@@H]([C@H](C)CCCC(C)(C)O)CC[C@@H]23)C[C@@H](O)C[C@@H]1NCC1CC1` [Compound 49, 1α-NH(Cyclopropylmethyl) VD3], the IC50 in the test on SREBP (Cricetulus griseus) was determined as 16 µM.

Take `Cc1ccc(S(=O)(=O)N[C@@H]2C/C(=C\C=C3/CCC[C@]4(C)[C@@H]([C@H](C)CCCC(C)(C)O)CC[C@@H]34)C[C@@H](O)C2)cc1` [Compound 85, 19-Nor 1α-NHTs-3β-OH VD3]: the IC50 in the test on SREBP (Cricetulus griseus) was determined as 0.52 µM.

Turning to `C[C@H](CCCC(C)(C)O)[C@H]1CC[C@H]2/C(=C/C=C3/C[C@@H](O)C[C@H](NC(=O)c4ccc(SC(F)(F)F)cc4)C3)CCC[C@]12C` [Compound 86, 19-Nor 1α-NH(p-SCF3Bz)-3β-OH VD3], the IC50 in the test on SREBP (Cricetulus griseus) came out at 0.53 µM.

For `C[C@H](CCCC(C)(C)O)[C@H]1CC[C@H]2/C(=C/C=C3/C[C@@H](O)C[C@H](N4C(=O)c5ccccc5C4=O)C3)CCC[C@]12C` [Compound 87, 19-Nor 1α-NPhth-3β-OH VD3], the IC50 with SREBP (Cricetulus griseus) came out at 0.52 µM.

Regarding `C[C@H](CCCC(C)(C)O)[C@H]1CC[C@H]2/C(=C/C=C3/C[C@@H](O)C[C@H](NS(C)(=O)=O)C3)CCC[C@]12C` [Compound 89, 19-Nor 1α-NHMs-3β-OH VD3], the IC50 in the test with SREBP (Cricetulus griseus) was determined as 3.34 µM.

Consider `C[C@H](CCCC(C)(C)O)[C@H]1CC[C@H]2/C(=C/C=C3/C[C@@H](O)C[C@H](NC(=O)C(F)(F)F)C3)CCC[C@]12C` [Compound 90, 19-Nor 1α-NH(Trifluoroacetyl)-3β-OH VD3], for which the IC50 with SREBP (Cricetulus griseus) came to 0.83 µM.

Regarding `C[C@H](CCCC(C)(C)O)[C@H]1CC[C@H]2/C(=C/C=C3/C[C@@H](O)C[C@H](NS(=O)(=O)c4cccc5c(N(C)C)cccc45)C3)CCC[C@]12C` [Compound 91, 19-Nor 1α-NHDns-3β-OH VD3], in the test with SREBP (Cricetulus griseus), the IC50 came out at 1.17 µM.

On to `C[C@H](CCCC(C)(C)O)[C@H]1CC[C@H]2/C(=C/C=C3/C[C@@H](O)C[C@H](F)C3)CCC[C@]12C` [Compound 98, 19-Nor 1α-F-3β-OH VD3], for which the IC50 in the test with SREBP (Cricetulus griseus) was found to be 1.59 µM.

By IC50 is commonly meant the concentration needed to halve the response being measured.

(Values after patent US20180265463A1, “Vitamin D3 Derivatives and Pharmaceutical Use Thereof” (Kyoto University, priority 2014, published 2018).)
